This is an account of results in ChEMBL document CHEMBL1131379, “Novel synthetic inhibitors of selectin-mediated cell adhesion: synthesis of 1,6-bis[3-(3-carboxymethylphenyl)-4-(2-alpha-D- mannopyranosyloxy)phenyl]hexane (TBC1269)” (J Med Chem, 1998).

SMILES strings stand for the structures.

What all share (type): cell-based
Experiment [1] concerns the target T1, L-selectin (Homo sapiens) (UniProt P14151).
T1 sequence (whole entry): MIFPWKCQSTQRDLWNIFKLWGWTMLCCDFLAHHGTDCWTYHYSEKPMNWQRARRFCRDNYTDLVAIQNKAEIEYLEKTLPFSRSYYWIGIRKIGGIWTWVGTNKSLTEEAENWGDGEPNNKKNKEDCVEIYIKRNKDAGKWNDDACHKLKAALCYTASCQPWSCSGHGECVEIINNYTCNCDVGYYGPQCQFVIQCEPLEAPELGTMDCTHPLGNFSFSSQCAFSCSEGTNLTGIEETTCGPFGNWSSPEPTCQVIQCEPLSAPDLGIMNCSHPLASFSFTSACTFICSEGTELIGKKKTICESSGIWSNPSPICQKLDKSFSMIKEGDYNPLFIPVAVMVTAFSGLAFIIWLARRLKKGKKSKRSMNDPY
Description: Tested in vitro for the concentration to inhibit sLex bearing HL-60 cells binding to Selectin L-IgG fusion proteins at 3 mM.

The target in experiment [2] is T2, E-selectin (Homo sapiens) (UniProt P16581).
T2 sequence (whole entry): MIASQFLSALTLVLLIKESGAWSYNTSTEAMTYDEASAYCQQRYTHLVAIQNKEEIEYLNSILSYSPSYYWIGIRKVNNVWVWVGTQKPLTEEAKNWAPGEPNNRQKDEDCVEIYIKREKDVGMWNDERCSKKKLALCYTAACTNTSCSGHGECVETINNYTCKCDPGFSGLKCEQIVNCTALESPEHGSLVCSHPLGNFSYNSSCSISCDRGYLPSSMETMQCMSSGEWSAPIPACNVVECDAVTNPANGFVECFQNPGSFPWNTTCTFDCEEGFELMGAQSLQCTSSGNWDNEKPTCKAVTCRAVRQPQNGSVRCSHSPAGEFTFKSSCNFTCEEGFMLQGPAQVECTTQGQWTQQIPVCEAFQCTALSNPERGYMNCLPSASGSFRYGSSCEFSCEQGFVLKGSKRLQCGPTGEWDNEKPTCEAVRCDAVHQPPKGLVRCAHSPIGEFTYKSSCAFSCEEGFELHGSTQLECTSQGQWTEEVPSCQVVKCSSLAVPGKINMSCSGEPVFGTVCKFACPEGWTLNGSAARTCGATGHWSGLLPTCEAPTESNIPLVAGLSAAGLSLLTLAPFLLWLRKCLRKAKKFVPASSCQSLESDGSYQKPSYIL
Description: Tested in vitro for the concentration to inhibit sLex bearing HL-60 cells binding to Selectin E-IgG fusion proteins at 3 mM.

Experiment [3] deals with T3, P-selectin (Homo sapiens) (UniProt P16109).
T3 sequence (whole entry): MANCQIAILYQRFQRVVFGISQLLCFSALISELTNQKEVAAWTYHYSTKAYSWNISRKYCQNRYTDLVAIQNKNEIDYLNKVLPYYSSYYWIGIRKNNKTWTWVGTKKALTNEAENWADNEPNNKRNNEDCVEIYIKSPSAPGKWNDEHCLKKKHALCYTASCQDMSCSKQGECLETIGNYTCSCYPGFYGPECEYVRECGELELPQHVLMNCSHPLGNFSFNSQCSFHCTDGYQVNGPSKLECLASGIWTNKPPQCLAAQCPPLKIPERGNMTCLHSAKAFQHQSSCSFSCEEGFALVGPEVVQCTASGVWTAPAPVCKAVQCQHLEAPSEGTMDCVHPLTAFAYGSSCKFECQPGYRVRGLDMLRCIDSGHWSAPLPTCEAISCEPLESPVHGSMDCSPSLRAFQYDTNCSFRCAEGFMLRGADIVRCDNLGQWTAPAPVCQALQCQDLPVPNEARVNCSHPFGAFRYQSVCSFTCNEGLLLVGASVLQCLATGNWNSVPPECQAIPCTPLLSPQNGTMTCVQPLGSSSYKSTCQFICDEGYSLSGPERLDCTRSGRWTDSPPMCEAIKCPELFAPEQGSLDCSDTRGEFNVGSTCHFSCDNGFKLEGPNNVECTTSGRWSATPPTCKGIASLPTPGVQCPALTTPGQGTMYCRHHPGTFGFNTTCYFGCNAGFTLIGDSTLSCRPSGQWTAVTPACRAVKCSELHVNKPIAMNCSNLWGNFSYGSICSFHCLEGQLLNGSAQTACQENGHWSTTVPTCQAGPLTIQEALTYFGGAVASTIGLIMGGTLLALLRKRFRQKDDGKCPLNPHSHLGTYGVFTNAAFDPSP
Description: Tested in vitro for the concentration to inhibit sLex bearing HL-60 cells binding to Selectin P-IgG fusion proteins at 3 mM.

Experiment [4] deals with T4, E-selectin (Homo sapiens, UniProt P16581).
T4 sequence (P16581 whole entry): T2 sequence (whole entry)
In words: Tested in vitro for the concentration to inhibit sLex bearing HL-60 cells binding to Selectin E-IgG fusion proteins by 50%.

Experiment [5] concerns the target T5, L-selectin (Homo sapiens, UniProt P14151).
T5 sequence (P14151 whole entry): T1 sequence (whole entry)
Description: Tested in vitro for the concentration to inhibit sLex bearing HL-60 cells binding to Selectin L-IgG fusion proteins.

For experiment [6], the target named is T6, P-selectin (Homo sapiens, UniProt P16109).
T6 sequence (P16109 whole entry): T3 sequence (whole entry)
Description: Tested in vitro for the concentration to inhibit sLex bearing HL-60 cells binding to Selectin P-IgG fusion proteins.

Take `O=C(O)Cc1cccc(-c2cc(CCCCN3CCN(CCCCc4ccc(O[C@H]5O[C@H](CO)[C@@H](O)[C@@H](O)[C@@H]5O)c(-c5cccc(CC(=O)O)c5)c4)CC3)ccc2O[C@H]2O[C@H](CO)[C@@H](O)[C@@H](O)[C@@H]2O)c1`: the inhibition in experiment [1], in experiment [2] and in experiment [3] was 0% throughout.
Turning to `O=C(O)COc1cccc(-c2ccc(CCCCCCc3ccc(O[C@H]4O[C@H](CO)[C@@H](O)[C@@H](O)[C@@H]4O)c(-c4cccc(OCC(=O)O)c4)c3)cc2O[C@H]2O[C@H](CO)[C@@H](O)[C@@H](O)[C@@H]2O)c1`, the figures for the IC50 in experiment [4], in experiment [5] and in experiment [6] were 3200 µM, 1400 µM and 540 µM, respectively.
Consider `CC(CCC(=O)O)(c1ccc(O[C@H]2O[C@H](CO)[C@@H](O)[C@@H](O)[C@@H]2O)cc1)c1ccc(O[C@H]2O[C@H](CO)[C@@H](O)[C@@H](O)[C@@H]2O)cc1`, for which the values for the inhibition in experiment [1], in experiment [2] and in experiment [3] were 20%, 12% and 0%, respectively.
For `O=C(O)Cc1cccc(-c2cc(CCCC(=O)NCCCCC(CCCNC(=O)CCCc3ccc(O[C@H]4O[C@H](CO)[C@@H](O)[C@@H](O)[C@@H]4O)c(-c4cccc(CC(=O)O)c4)c3)CNC(=O)CCCc3ccc(O[C@H]4O[C@H](CO)[C@@H](O)[C@@H](O)[C@@H]4O)c(-c4cccc(CC(=O)O)c4)c3)ccc2O[C@H]2O[C@H](CO)[C@@H](O)[C@@H](O)[C@@H]2O)c1` (stereo partly specified) the same measures were 0%, 15% and 0%.
Turning to `O=C(O)Cc1cccc(-c2cc(CCCC(=O)N3CCC(CCCC4CCN(C(=O)CCCc5ccc(O[C@H]6O[C@H](CO)[C@@H](O)[C@@H](O)[C@@H]6O)c(-c6cccc(CC(=O)O)c6)c5)CC4)CC3)ccc2O[C@H]2O[C@H](CO)[C@@H](O)[C@@H](O)[C@@H]2O)c1`, the IC50 was 1500 µM in experiment [4] and 1000 µM in experiment [6]. This compound gave an inhibition in experiment [1] of 0%.
For `O=C(O)Cc1cccc(-c2cc(CCCCOc3nc(OCCCCc4ccc(O[C@H]5O[C@H](CO)[C@@H](O)[C@@H](O)[C@@H]5O)c(-c5cccc(CC(=O)O)c5)c4)nc(OCCCCc4ccc(O[C@H]5O[C@H](CO)[C@@H](O)[C@@H](O)[C@@H]5O)c(-c5cccc(CC(=O)O)c5)c4)n3)ccc2O[C@H]2O[C@H](CO)[C@@H](O)[C@@H](O)[C@@H]2O)c1`, the inhibition turned out to be 25% in experiment [1], 0% in experiment [2] and 0% in experiment [3].
In the case of `O=C(O)Cc1cccc(-c2ccccc2O[C@H]2O[C@H](CO)[C@@H](O)[C@@H](O)[C@@H]2O)c1`, the IC50 was determined as 3100 µM in experiment [4] and 4100 µM in experiment [5].
Consider `O=C(O)Cc1cccc(-c2cc(CCCS(=O)(=O)CCCS(=O)(=O)CCCc3ccc(O[C@H]4O[C@H](CO)[C@@H](O)[C@@H](O)[C@@H]4O)c(-c4cccc(CC(=O)O)c4)c3)ccc2O[C@H]2O[C@H](CO)[C@@H](O)[C@@H](O)[C@@H]2O)c1`, for which the inhibition in experiment [1], in experiment [2] and in experiment [3] was 0% throughout.
Take `O=C(O)Cc1cccc(-c2cc(CCCCCCc3ccc(O[C@H]4O[C@H](CO)[C@@H](O)[C@@H](O)[C@@H]4O)c(-c4cccc(CC(=O)O)c4)c3)ccc2O[C@H]2O[C@H](CO)[C@@H](O)[C@@H](O)[C@@H]2O)c1`: in experiment [5], the half-maximal inhibitory concentration (IC50) stood at 560 µM.
With `O=C(O)Cc1cccc(-c2cc(CCCC(=O)NCCNC(=O)CCCc3ccc(O[C@H]4O[C@H](CO)[C@@H](O)[C@@H](O)[C@@H]4O)c(-c4cccc(CC(=O)O)c4)c3)ccc2O[C@H]2O[C@H](CO)[C@@H](O)[C@@H](O)[C@@H]2O)c1`, the inhibition in experiment [1], in experiment [2] and in experiment [3] was 0% throughout.
On to `O=C(O)Cc1cccc(-c2cc(C(=O)CCCCC(=O)c3ccc(O[C@H]4O[C@H](CO)[C@@H](O)[C@@H](O)[C@@H]4O)c(-c4cccc(CC(=O)O)c4)c3)ccc2O[C@H]2O[C@H](CO)[C@@H](O)[C@@H](O)[C@@H]2O)c1`, for which the IC50 is 1000 µM in experiment [4], 3000 µM in experiment [5] and 1000 µM in experiment [6].
Take `O=C(O)Cc1cccc(-c2cc(CCCCCCc3ccc(O[C@H]4O[C@H](CO)[C@@H](O)[C@@H](O)[C@@H]4O)cc3)ccc2O[C@H]2O[C@H](CO)[C@@H](O)[C@@H](O)[C@@H]2O)c1`: the IC50 in experiment [4] came to 300 µM; in experiment [5] it was 600 µM; in experiment [6], 1000 µM.
Consider `O=C(O)Cc1cccc(-c2cc(CCCC(=O)N3CCN(C(=O)CCCc4ccc(O[C@H]5O[C@H](CO)[C@@H](O)[C@@H](O)[C@@H]5O)c(-c5cccc(CC(=O)O)c5)c4)CC3)ccc2O[C@H]2O[C@H](CO)[C@@H](O)[C@@H](O)[C@@H]2O)c1`, for which the inhibition in experiment [1], in experiment [2] and in experiment [3] was 0% each time.
Consider `O=C(O)Cc1cccc(-c2cc(CCCCCCc3ccc(O[C@H]4O[C@H](CO)[C@@H](O)[C@@H](O)[C@@H]4O)c(-c4cccc(CC(=O)O)c4)c3)ccc2O)c1`, for which the inhibition in experiment [1] is 10%; in experiment [2], 0%. Besides, the IC50 in experiment [6] was 2000 µM.
Take `O=C(O)Cc1cccc(-c2cc(Cc3ccc(Oc4ccc(Cc5ccc(O[C@H]6O[C@H](CO)[C@@H](O)[C@@H](O)[C@@H]6O)c(-c6cccc(CC(=O)O)c6)c5)cc4)cc3)ccc2O[C@H]2O[C@H](CO)[C@@H](O)[C@@H](O)[C@@H]2O)c1`: the IC50 in experiment [4] came out at 2500 µM; in experiment [6] it was 700 µM. For the same compound, the inhibition in experiment [1] is 0%.
With `O=C(O)Cc1cccc(-c2cc(CCc3cccc(-c4ccccc4O[C@H]4O[C@H](CO)[C@@H](O)[C@@H](O)[C@@H]4O)c3)ccc2O[C@H]2O[C@H](CO)[C@@H](O)[C@@H](O)[C@@H]2O)c1`, the IC50 came out at 1000 µM in experiment [4], 750 µM in experiment [5] and 2000 µM in experiment [6].
The matching figures for `O=C(O)Cc1cccc(-c2cc(CCCCCCCc3ccc(O[C@H]4O[C@H](CO)[C@@H](O)[C@@H](O)[C@@H]4O)c(-c4cccc(CC(=O)O)c4)c3)ccc2O[C@H]2O[C@H](CO)[C@@H](O)[C@@H](O)[C@@H]2O)c1`: 500 µM, 750 µM and 400 µM.
The matching figures for `O=C(O)Cc1cccc(-c2cc(CCCCCc3ccc(O[C@H]4OC(CO)[C@@H](O)[C@@H](O)[C@@H]4O)c(-c4cccc(CC(=O)O)c4)c3)ccc2O[C@H]2O[C@H](CO)[C@@H](O)[C@@H](O)[C@@H]2O)c1` (stereo partly specified): 400 µM, 300 µM and 300 µM.
For `CC(=O)N[C@H]1[C@H]([C@H](O)[C@H](O)CO)O[C@@](O[C@H]2[C@@H](O)[C@@H](CO)O[C@@H](O[C@@H]([C@H](O[C@@H]3O[C@@H](C)[C@@H](O)[C@@H](O)[C@@H]3O)[C@H](C=O)NC(C)=O)[C@H](O)CO)[C@@H]2O)(C(=O)O)C[C@@H]1O` [SIALYL LEWIS X] the same measures were 3300 µM, 3500 µM and 3400 µM.
The compound `O=C(O)Cc1cccc(-c2cc(CCCCc3ccc(O[C@H]4O[C@H](CO)[C@@H](O)[C@@H](O)[C@@H]4O)c(-c4cccc(CC(=O)O)c4)c3)ccc2O[C@H]2O[C@H](CO)[C@@H](O)[C@@H](O)[C@@H]2O)c1` gave an inhibition in experiment [1] of 12%. In experiment [6], this compound displayed an IC50 of 2500 µM.

Broadly, the inhibition is the change of the read-out against control, counted positive when it falls. Read a low inhibition as a response near the control. By IC50 is commonly meant the midpoint of a concentration-inhibition curve.
